These results are taken from publication PMC7815716, “Mechanistic basis of breast cancer resistance protein inhibition by new indeno[1,2-b]indoles” (Scientific Reports, 2021).

Entries after “also recorded” stand apart in the source; their conditions may differ. Like-named read-outs stand apart in the source and are kept apart here.

As a reminder, the EC50 is the concentration giving half of the maximal effect.

For one series, the system named is H460MX20 cells. Kind of series: Sensitization of lung cancer cells overexpressing ABCG2 to SN-38, MTT assay. It counts as cell-based, human. To be noted: H460MX20, SN-38 10 nM, 72 h, IC50 value or 5 µM. As to the method: Cell viability was evaluated with a 3-(4,5-dimethylthiazol-2-yl)-2,5-diphenyltetrazolium bromide (MTT) colorimetric assay. HEK293 WT and HEK293-ABCG2 cells were seeded into 96-well culture plates at a 1.5 × 10^4 cells/well density. After overnight incubation, the cells were treated with various concentrations of compounds (0–100 µM) for 72 h at 37 °C under 5% CO2. […] Sensitization experiments were also carried out on H460 and H460MX20 cells. For these experiments, H460 and H460MX20 cells were seeded into 96-well culture plates at 1.0 × 10^4 cells/well density. […] After the treatment, the culture medium was removed and 100 μL of a 0.5 mg.mL^−1 MTT solution was added. Cells were then incubated for 4 h at 37 °C under 5% CO2. The formazan crystals were dissolved with a solution of DMSO/ethanol (1:1) and the absorbance was measured at 570 nm using a Multiscan FC microplate reader (Thermo Scientific). The results were expressed as percentage of viable cells versus control cells (0.1% DMSO, v/v) taken as 100%.
On the technique in general: Tetrazolium dyes change colour on reduction, which living cells bring about.

The target of the next series is T1, ABCC1 (MRP1) (Homo sapiens, UniProt P33527).
T1 construct: expressed in transfected cells; host or cells: BHK21
Briefly: ABCC1 (MRP1) calcein-AM transport inhibition in BHK21-ABCC1 cells. To be noted: 1 and 10 µM; for Inhibition of MRP1-mediated transport: calcein-AM. It counts as cell-based. As to the method:
ABCG2 inhibition assays were carried out on HEK293 WT and HEK293-ABCG2 cells. Cells were seeded at the density of 1 × 10^5 cells/well in 24 well culture plates and incubated for 48 h at 37 °C under 5% CO2. Cells were treated with compounds and 10 μM of mitoxantrone for 30 min at 37 °C and 5% CO2. After incubation the cells were washed with PBS, trypsinized and resuspended in ice cold PBS. The intracellular drug fluorescence was monitored with a FACS Calibur cytometer (Becton Dickinson) using the FL4 channel, with at least 10,000 events collected. The maximal fluorescence (taken as 100%) was determined with the difference between the mean fluorescence of HEK-ABCG2 cells incubated with 0.5 μM Ko143 (ABCG2 reference inhibitor) or by using the HEK293 WT cell line as a control and cells without inhibitor (mitoxantrone alone). The percent of inhibition was determined as previously described. For bimodulation assays the cells were concomitantly treated with 10 μM of one or two combined inhibitors under similar conditions as described previously. For washing assays, cells were treated with 10 μM concentrations of compounds for 30 min. Then, the medium with the inhibitor was removed and the cells were washed with PBS and incubated only with culture medium for different periods of time (0.5 and 3 h). After incubation, cells were exposed to 5 µM mitoxantrone for 30 min, and then analyzed by flow cytometry. The percentage of transport inhibition was calculated by the following equation: %Inhibition=C-S/I-S×100 where “C” corresponds to the intracellular fluorescence of cells in the presence of the tested compounds and substrate (mitoxantrone to ABCG2, Rhodamine 123 to ABCB1 and calcein to ABCC1), “S” corresponds to the intracellular fluorescence of cells in the presence of substrate alone, and “I” corresponds to the intracellular fluorescence of cells in the presence of the substrate and reference inhibitor (Ko143 to ABCG2, GF120918 to ABCB1 and verapamil to ABCC1).
ABCB1 (P-gp) and ABCC1 (MRP1) inhibition assays were carried out on NIH3T3 WT and NIH3T3-ABCB1 or BHK21 WT and BHK21-ABCC1 cell lines. Cells were treated with 5 μM rhodamine 123 or 0.2 μM calcein-AM as substrates, and with or without GF120918 (0.5 μM) or verapamil (30 μM) as reference inhibitors, for ABCB1 and ABCC1, respectively. Compounds were assayed at 1 and 10 µM. The same procedure and calculation to determine the percentage of inhibition were used for ABCG2 inhibition assays. The intracellular fluorescence was monitored with a FACS Calibur cytometer (Becton Dickinson) using the FL1 channel.

For another series, the target named is T2, ABCG2 (Homo sapiens, UniProt Q9UNQ0).
T2 sequence (Q9UNQ0 1-655): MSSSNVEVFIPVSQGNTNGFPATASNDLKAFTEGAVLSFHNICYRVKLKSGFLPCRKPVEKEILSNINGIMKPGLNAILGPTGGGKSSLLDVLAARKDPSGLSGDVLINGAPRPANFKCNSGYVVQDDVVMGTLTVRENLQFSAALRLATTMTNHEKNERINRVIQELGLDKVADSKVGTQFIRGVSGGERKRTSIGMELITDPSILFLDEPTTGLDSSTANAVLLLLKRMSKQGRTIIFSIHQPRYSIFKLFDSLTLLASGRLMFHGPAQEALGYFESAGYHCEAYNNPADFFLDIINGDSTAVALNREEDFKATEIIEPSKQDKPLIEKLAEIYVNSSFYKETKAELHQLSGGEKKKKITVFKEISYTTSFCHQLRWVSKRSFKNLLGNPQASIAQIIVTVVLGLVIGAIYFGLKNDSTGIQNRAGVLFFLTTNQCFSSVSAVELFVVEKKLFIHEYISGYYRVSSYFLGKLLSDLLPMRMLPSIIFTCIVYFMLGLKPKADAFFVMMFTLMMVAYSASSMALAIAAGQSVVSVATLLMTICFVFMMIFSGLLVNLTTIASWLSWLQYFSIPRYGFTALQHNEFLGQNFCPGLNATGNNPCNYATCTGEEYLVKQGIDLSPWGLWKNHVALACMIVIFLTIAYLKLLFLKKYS
Kind of series: ABCG2 ATPase activity, High-Five insect cell total membranes. The class given is biochemical. Set-up: expressed in transfected cells. As to the method: The ATPase assay was carried out as previously described. High-Five insect cell total membranes overexpressing ABCG2 were used at a concentration of 5 µg protein/tube in a final volume of 100 µL. The membranes were incubated in assay buffer containing 50 mM Tris–HCl, pH 6.8, 150 mM N-methyl-D-glucamine (NMDG)-Cl, 5 mM sodium azide, 1 mM EGTA, 1 mM ouabain, 2 mM DTT, and 10 mM MgCl2, in the presence or absence of sodium orthovanadate (0.3 mM). The protein-buffer mix was treated with the compounds at increasing concentrations (0.001–5 µM) and incubated for 20 min at 37 °C in the presence of ATP (5 mM). The reaction was stopped with the addition of 100 µL of 5% SDS, for color development was added 400 µL of Pi solution (sulfuric acid 36.2 N, water, ammonium molybdate and antimony potassium tartrate) and 200 µL of 1% ascorbic acid. The absorbance was measured after 10 min at 880 nm using a spectrophotometer Ultrospec 3100 pro (Amersham Biosciences).
Table S2. Effect of indeno[1,2-b]indole derivatives on the ATPase activity of ABCG2.The vanadate-sensitive ATPase activity of ABCG2 was measured using the total membranes of High-Five insect cells expressing this transporter as described previously [S5]. The EC50 (concentration required to achieve 50% stimulation) is given as the concentration ± SD (nM) of three independent experiments in duplicate.

The mark [1] stands for this setting: EC50 (nM ± SD) values of stimulation on the ATPase activity of ABCG2, vanadate-sensitive ATPase, High-Five insect cell total membranes.
Setting [2] is: EC50 of stimulation of ABCG2 ATPase activity, approximate values.

T1 sequence (P33527 whole entry): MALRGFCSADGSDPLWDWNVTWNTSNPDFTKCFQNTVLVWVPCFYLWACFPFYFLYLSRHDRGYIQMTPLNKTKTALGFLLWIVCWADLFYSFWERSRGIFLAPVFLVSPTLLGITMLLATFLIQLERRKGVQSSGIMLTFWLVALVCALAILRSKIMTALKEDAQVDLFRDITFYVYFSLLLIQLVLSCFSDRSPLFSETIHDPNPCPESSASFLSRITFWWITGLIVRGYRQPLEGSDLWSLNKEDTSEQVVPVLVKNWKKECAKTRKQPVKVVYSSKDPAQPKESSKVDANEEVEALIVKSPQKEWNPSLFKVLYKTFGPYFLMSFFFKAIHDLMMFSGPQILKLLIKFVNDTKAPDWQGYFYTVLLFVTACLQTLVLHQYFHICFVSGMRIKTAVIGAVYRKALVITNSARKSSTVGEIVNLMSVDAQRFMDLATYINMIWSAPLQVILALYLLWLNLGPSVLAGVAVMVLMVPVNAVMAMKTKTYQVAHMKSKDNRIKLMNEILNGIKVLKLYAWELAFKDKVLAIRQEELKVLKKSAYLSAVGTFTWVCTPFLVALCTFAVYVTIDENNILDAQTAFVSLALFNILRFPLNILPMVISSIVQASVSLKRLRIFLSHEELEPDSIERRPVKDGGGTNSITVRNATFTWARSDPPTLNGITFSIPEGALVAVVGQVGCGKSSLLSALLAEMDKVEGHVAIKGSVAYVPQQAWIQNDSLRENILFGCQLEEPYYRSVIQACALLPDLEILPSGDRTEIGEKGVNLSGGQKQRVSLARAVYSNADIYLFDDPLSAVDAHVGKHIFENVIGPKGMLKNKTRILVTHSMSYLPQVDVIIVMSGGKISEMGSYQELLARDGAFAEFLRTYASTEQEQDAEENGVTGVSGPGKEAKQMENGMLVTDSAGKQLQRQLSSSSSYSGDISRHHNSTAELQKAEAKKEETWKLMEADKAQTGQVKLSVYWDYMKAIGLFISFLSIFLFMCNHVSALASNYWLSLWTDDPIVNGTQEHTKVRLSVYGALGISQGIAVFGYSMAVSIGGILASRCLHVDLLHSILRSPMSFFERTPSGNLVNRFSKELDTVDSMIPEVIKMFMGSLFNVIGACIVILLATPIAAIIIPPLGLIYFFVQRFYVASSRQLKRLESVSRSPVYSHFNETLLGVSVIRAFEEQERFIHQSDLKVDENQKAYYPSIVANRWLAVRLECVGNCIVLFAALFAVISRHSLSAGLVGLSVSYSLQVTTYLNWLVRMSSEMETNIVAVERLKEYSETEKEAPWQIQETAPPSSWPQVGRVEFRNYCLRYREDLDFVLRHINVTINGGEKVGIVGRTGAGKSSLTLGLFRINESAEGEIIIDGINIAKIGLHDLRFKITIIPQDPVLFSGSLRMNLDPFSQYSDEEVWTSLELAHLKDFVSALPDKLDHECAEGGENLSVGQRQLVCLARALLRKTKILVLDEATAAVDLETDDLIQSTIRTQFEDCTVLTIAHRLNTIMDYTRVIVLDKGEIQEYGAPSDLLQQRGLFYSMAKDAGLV

For `COc1cc2c(cc1OC)-c1c(c3c(n1CCc1ccccc1)CC(C)CC3=O)C2=O` (centres unmarked) [5e, 2,3-Dimethoxy-7-methyl-5-phenethyl-5,6,7,8-tetrahydroindeno[1,2-b]indole-9,10-dione], the “Chemosensitization to SN-38” value with H460MX20 cells was “chemoresistance phenotype was fully reversed”. Besides, the “Inhibition of MRP1-mediated transport” value at ABCC1 (MRP1) is “partially inhibited”. For the same compound, the EC50 is about 170 nM on ABCG2 (approximate values, read-out: EC50 of stimulation of ABCG2 ATPase activity) and 170 ± 11 nM at ABCG2 (vanadate-sensitive ATPase, High-Five insect cell total membranes, read-out: EC50 (nM ± SD) values of stimulation on the ATPase activity of ABCG2).
Take `COc1ccccc1CCn1c2c(c3c(O)cc(C)cc31)C(=O)c1ccccc1-2` [6a, 9-Hydroxy-7-methyl-5-(2-methoxyphenethyl)-5H-indeno[1,2-b]indol-10(5H)-one]: the “Chemosensitization to SN-38” value with H460MX20 cells is reported as “chemoresistance phenotype was fully reversed”. Also, the “Selectivity toward ABCG2 versus P-gp and MRP1” value on ABCC1 (MRP1) is reported as “specific ABCG2 inhibitor; also recorded: completely selective to ABCG2”. For the same compound, the figures for the EC50 on ABCG2 (setting [1]) and at ABCG2 (setting [2]) were 2.9 ± 0.45 nM and about 3 nM, respectively.
For the compound `COc1ccc2[nH]cc(CCn3c4c(c5c(O)cccc53)C(=O)c3ccccc3-4)c2c1` [6c, 9-Hydroxy-5-(2-(5-methoxy-1H-indol-3-yl)ethyl)indeno[1,2-b]indol-10(5H)-one], the “Inhibition of MRP1-mediated transport” value on ABCC1 (MRP1) was “partially inhibited”. For the same compound, the EC50 on ABCG2 (setting [1]) is 4.4 ± 0.71 nM; at ABCG2 (setting [2]), about 3 nM.
The corresponding values for `COc1cccc(CCn2c3c(c4c(O)cccc42)C(=O)c2ccc(O)cc2-3)c1` [6d, 3,9-Dihydroxy-5-(3-methoxyphenethyl)indeno[1,2-b]indol-10(5H)-one] are “partially inhibited”, 3.2 ± 0.44 nM and about 3 nM.
